Experimental data reported in PubChem BioAssay AID256 (DTP/NCI, 2004).
Values joined by “and” are separate entries in the source; they are usually repeats but may differ in a detail not shown here. Equal entries are not always repeated. Inconclusive results and toxic doses are left out. The calls were made as follows: active = survival T/C of 150% or more; inactive = T/C below 125% in these data.

System: CD2F1 mice, L1210 leukemia ip, survival T/C
Assay: NCI In Vivo Anticancer Drug Screen. Data for tumor model L1210 Leukemia (intraperitoneal) in CD2F1 (CDF1) mice
Details: higher = longer survival
Method in brief: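 In this screen, transplantable tumors were grown in mice given either the compound or its vehicle. Results were expressed as the treated measurement relative to the control measurement.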

[1] = endpoint: mean survival time, dose: 25.0 mg/kg/injection, schedule: Q01DX009 (ip), vehicle: saline with Tween-80
[2] = endpoint: mean survival time, dose: 50.0 mg/kg/injection, schedule: Q01DX009 (ip), vehicle: saline with Tween-80
[3] = endpoint: mean survival time, dose: 100.0 mg/kg/injection, schedule: Q01DX009 (ip), vehicle: saline with Tween-80
[4] = endpoint: mean survival time, dose: 100.0 mg/kg/injection, schedule: Q04DX003 (ip), vehicle: saline with Tween-80
[5] = endpoint: mean survival time, dose: 200.0 mg/kg/injection, schedule: Q04DX003 (ip), vehicle: saline with Tween-80
[6] = endpoint: mean survival time, dose: 400.0 mg/kg/injection, schedule: Q04DX003 (ip), vehicle: saline with Tween-80
[7] = endpoint: mean survival time, dose: 12.5 mg/kg/injection, schedule: Q01DX009 (ip), vehicle: saline with Tween-80
[8] = endpoint: mean survival time, dose: 100.0 mg/kg/injection, schedule: Q01DX001 (ip), vehicle: Klucel (hydroxypropylcellulose) (HPC)
[9] = endpoint: mean survival time, dose: 200.0 mg/kg/injection, schedule: Q01DX001 (ip), vehicle: Klucel (hydroxypropylcellulose) (HPC)
[10] = endpoint: mean survival time, dose: 400.0 mg/kg/injection, schedule: Q01DX001 (ip), vehicle: Klucel (hydroxypropylcellulose) (HPC)

Measured: T/C

C[C@]12CC[C@H](OC3OC(CO)C(O)C(O)C3O)C[C@H]1CC[C@@H]1[C@@H]2CC[C@]2(C)[C@@H](C3=CCOC3=O)CC[C@]12O (some centres undefined)
inactive: endpoint: mean survival time, dose: 0.5 mg/kg/injection, schedule: Q01DX009 (ip), vehicle: saline 110 % of control | endpoint: mean survival time, dose: 1.0 mg/kg/injection, schedule: Q01DX009 (ip), vehicle: saline 110 % of control | endpoint: mean survival time, dose: 2.0 mg/kg/injection, schedule: Q01DX009 (ip), vehicle: saline 107 % of control | endpoint: median survival time, dose: 0.5 mg/kg/injection, schedule: Q01DX009 (ip), vehicle: saline 112 % of control | endpoint: median survival time, dose: 1.0 mg/kg/injection, schedule: Q01DX009 (ip), vehicle: saline 108 % of control | endpoint: median survival time, dose: 2.0 mg/kg/injection, schedule: Q01DX009 (ip), vehicle: saline 113 % of control | endpoint: median survival time, dose: 4.0 mg/kg/injection, schedule: Q01DX009 (ip), vehicle: saline 91 % of control

CCCNc1ccc(S(=O)(=O)c2ccc(N)cc2)cc1
inactive: [1] 95 % of control | [2] 95 % of control | [3] 89 % of control

S=c1cc(-c2ccccc2)ss1
inactive: [3] 97 % of control | endpoint: mean survival time, dose: 200.0 mg/kg/injection, schedule: Q01DX009 (ip), vehicle: saline with Tween-80 97 % of control | endpoint: mean survival time, dose: 400.0 mg/kg/injection, schedule: Q01DX009 (ip), vehicle: saline with Tween-80 98 % of control

CCCCCCC[CH2][Sn]1([CH2]CCCCCCC)[O]C2C(CO)OC(n3ccc(=O)[nH]c3=O)C2[O]1 (centres undefined)
inactive: endpoint: mean survival time, dose: 12.5 mg/kg/injection, schedule: Q01DX005 (ip), vehicle: other 100 % of control | endpoint: mean survival time, dose: 25.0 mg/kg/injection, schedule: Q01DX005 (ip), vehicle: other 90 % of control | endpoint: mean survival time, dose: 50.0 mg/kg/injection, schedule: Q01DX005 (ip), vehicle: other 91 % of control | endpoint: mean survival time, dose: 100.0 mg/kg/injection, schedule: Q01DX005 (ip), vehicle: other 94 % of control | endpoint: mean survival time, dose: 200.0 mg/kg/injection, schedule: Q01DX005 (ip), vehicle: other 91 % of control

CC(C)(C)OC(=O)CCC(NC(=O)OC(C)(C)C)C(=O)O (centres undefined)
inactive: [4] 98 % of control | [5] 93 % of control | [6] 95 % of control

CC(C)N(C(C)C)S(=O)(=O)c1ccccc1C(O)(c1ccccc1)c1ccccc1
inactive: [3] 92 % of control | [4] 94 % of control | [5] 96 % of control | [6] 89 % of control

CN(C)c1ccc(N=Nc2ccc([As](=O)(O)O)cc2)cc1
inactive: endpoint: mean survival time, dose: 6.25 mg/kg/injection, schedule: Q01DX009 (ip), vehicle: saline with Tween-80 91 % of control | endpoint: mean survival time, dose: 12.5 mg/kg/injection, schedule: Q01DX001 (ip), vehicle: saline with Tween-80 110 % of control | [7] 89 % of control

CC(=O)Nc1cccc(/C=C/C=C/c2cccc([N+](=O)[O-])c2)c1
inactive: [8] 103 % of control | [9] 97 % of control | [10] 90 % of control

Cc1cn(C2CC(O)C(CO)O2)c(=O)[n]([Hg][c]2ccccc2)c1=O (centres undefined)
inactive: endpoint: median survival time, dose: 0.79 mg/kg/injection, schedule: Q01DX005 (ip), vehicle: saline 110 % of control | endpoint: median survival time, dose: 1.56 mg/kg/injection, schedule: Q01DX005 (ip), vehicle: saline 103 % of control | endpoint: median survival time, dose: 3.12 mg/kg/injection, schedule: Q01DX005 (ip), vehicle: saline 112 % of control | endpoint: median survival time, dose: 6.25 mg/kg/injection, schedule: Q01DX005 (ip), vehicle: saline 103 % of control | endpoint: median survival time, dose: 12.5 mg/kg/injection, schedule: Q01DX005 (ip), vehicle: saline 103 % of control

CCCCNCCO
inactive: endpoint: mean survival time, dose: 100.0 mg/kg/injection, schedule: Q01DX001 (ip), vehicle: saline 104 % of control

CC(=O)CC(=O)Nc1ccccc1
inactive: [7] 101 % of control | [1] 97 % of control | [2] 97 % of control

O=C1c2cc([N+](=O)[O-])ccc2-c2cc(Br)ccc21
inactive: [4] 99 % of control | [5] 91 % of control

COc1cccc2c1C(=O)c1c(O)c3c(c(O)c1C2=O)C[C@@](O)(C(=O)CO)C[C@@H]3OC1CC(N)CC(C)O1 (some centres undefined)
active: endpoint: median survival time, dose: 0.75 mg/kg/injection, schedule: Q01DX009 (ip), vehicle: water 154 % of control | endpoint: median survival time, dose: 1.5 mg/kg/injection, schedule: Q01DX009 (ip), vehicle: water 200 % of control
inactive: endpoint: median survival time, dose: 3.0 mg/kg/injection, schedule: Q01DX009 (ip), vehicle: water 108 % of control

Cc1cccc(C)c1Nc1n[nH]c(=S)s1
inactive: [8] 97 % of control | [9] 101 % of control | [10] 101 % of control

O=C(O)c1ccc(P(=O)(O)O)cc1[N+](=O)[O-]
inactive: endpoint: mean survival time, dose: 25.0 mg/kg/injection, schedule: Q01DX009 (ip), vehicle: saline 91 % of control | endpoint: mean survival time, dose: 50.0 mg/kg/injection, schedule: Q01DX009 (ip), vehicle: saline 86 % of control

O=C(O)c1c(F)cccc1Br
inactive: endpoint: mean survival time, dose: 100.0 mg/kg/injection, schedule: Q04DX002 (ip), vehicle: saline with Tween-80 102 % of control | endpoint: mean survival time, dose: 200.0 mg/kg/injection, schedule: Q04DX002 (ip), vehicle: saline with Tween-80 98 % of control | endpoint: mean survival time, dose: 400.0 mg/kg/injection, schedule: Q04DX002 (ip), vehicle: saline with Tween-80 102 % of control

CC(=O)c1ccc(N=C=O)cc1
inactive: endpoint: mean survival time, dose: 25.0 mg/kg/injection, schedule: Q01DX001 (ip), vehicle: saline with Tween-80 100 % of control | endpoint: mean survival time, dose: 50.0 mg/kg/injection, schedule: Q01DX001 (ip), vehicle: saline with Tween-80 88 % of control | endpoint: mean survival time, dose: 100.0 mg/kg/injection, schedule: Q01DX001 (ip), vehicle: saline with Tween-80 92 % of control

CCCCCCCCc1ccc(NNC(N)=S)cc1
inactive: endpoint: mean survival time, dose: 1.56 mg/kg/injection, schedule: Q01DX009 (ip), vehicle: saline 93 % of control and 98 % of control and 101 % of control | endpoint: mean survival time, dose: 3.12 mg/kg/injection, schedule: Q01DX009 (ip), vehicle: saline 96 % of control (2×) and 106 % of control | endpoint: mean survival time, dose: 6.25 mg/kg/injection, schedule: Q01DX009 (ip), vehicle: saline 96 % of control and 97 % of control and 104 % of control | endpoint: mean survival time, dose: 12.5 mg/kg/injection, schedule: Q01DX009 (ip), vehicle: saline 97 % of control (2×) and 101 % of control

O=C(NC/C=C/Br)Nc1cnc2ccccc2c1
inactive: endpoint: mean survival time, dose: 25.0 mg/kg/injection, schedule: Q04DX003 (ip), vehicle: saline with Tween-80 102 % of control | endpoint: mean survival time, dose: 50.0 mg/kg/injection, schedule: Q04DX003 (ip), vehicle: saline with Tween-80 93 % of control

C/C(C#N)=C/c1ccccc1
inactive: endpoint: mean survival time, dose: 50.0 mg/kg/injection, schedule: Q01DX009 (ip), vehicle: saline sonified 108 % of control | endpoint: mean survival time, dose: 100.0 mg/kg/injection, schedule: Q01DX009 (ip), vehicle: saline sonified 105 % of control | [4] 100 % of control | endpoint: mean survival time, dose: 200.0 mg/kg/injection, schedule: Q01DX009 (ip), vehicle: saline sonified 105 % of control | [5] 105 % of control

N#C/C(=C\c1c(O)ccc2ccccc12)c1ccc([N+](=O)[O-])cc1
inactive: endpoint: mean survival time, dose: 66.0 mg/kg/injection, schedule: Q01DX009 (ip), vehicle: saline with Tween-80 88 % of control | [3] 91 % of control and 92 % of control | [4] 91 % of control | endpoint: mean survival time, dose: 150.0 mg/kg/injection, schedule: Q01DX009 (ip), vehicle: saline with Tween-80 100 % of control | [5] 94 % of control | [6] 91 % of control

Nc1ncnc2cc3c(cc12)ncn3C1OC(CO)C(O)C1O (centres undefined)
inactive: endpoint: mean survival time, dose: 12.5 mg/kg/injection, schedule: Q01DX005 (ip), vehicle: water 92 % of control | endpoint: mean survival time, dose: 25.0 mg/kg/injection, schedule: Q01DX005 (ip), vehicle: water 104 % of control | endpoint: mean survival time, dose: 50.0 mg/kg/injection, schedule: Q01DX005 (ip), vehicle: water 104 % of control | endpoint: mean survival time, dose: 100.0 mg/kg/injection, schedule: Q01DX005 (ip), vehicle: water 112 % of control | endpoint: mean survival time, dose: 200.0 mg/kg/injection, schedule: Q01DX005 (ip), vehicle: water 110 % of control

N#CCCSc1ccccc1
inactive: [4] 90 % of control | [5] 102 % of control | [6] 96 % of control

Cc1cc(NCCCCCCNc2cc(C)[n+](C)c3c(Cl)cccc23)c2cccc(Cl)c2[n+]1C
inactive: endpoint: mean survival time, dose: 12.5 mg/kg/injection, schedule: Q01DX009 (ip), vehicle: Klucel (hydroxypropylcellulose) (HPC) 98 % of control | endpoint: mean survival time, dose: 25.0 mg/kg/injection, schedule: Q01DX009 (ip), vehicle: Klucel (hydroxypropylcellulose) (HPC) 98 % of control | endpoint: mean survival time, dose: 50.0 mg/kg/injection, schedule: Q01DX009 (ip), vehicle: Klucel (hydroxypropylcellulose) (HPC) 94 % of control
